Measured values: PubChem BioAssay AID652241 (Broad Institute, 2013)
Inconclusive results are not listed. The source made the active and inactive calls.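 The calls were made as follows: active = fitted curve reaches activity 50 in the expected rising direction at or below the top valid tested dose; inconclusive = no clear call, values can overlap the other calls; inactive = activity in the wrong direction, and the rest.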

Biological target: Virion infectivity factor (Human immunodeficiency virus type 1 group M subtype B (isolate BH10)) + Virion infectivity factor (Human immunodeficiency virus type 1 group M subtype B (isolate BRU/LAI)) + Virion infectivity factor (Human immunodeficiency virus type 1 group M subtype B (isolate PCV12)) + Virion infectivity factor (Human immunodeficiency virus type 1 group M subtype B (isolate HXB2)) (UniProt P69720+P69721+P69722+P69723)
Assay: dose-dependent disruption of HIV Vif self-association – imaging, HEK293T, cherry-picks, dose response (AID 652241);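 also: imaged cell signal that rises when Vif self-association is disrupted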
Conditions: HEK293T Vif multimerization imaging, 24 h

Compound | activity, higher = inhibition (at 19.5 µM (top of the series)) | further results
O=C(CCCOc1ccc(Br)cc1)NNC(=O)c1ccncc1 | inactive | 
COc1c2ccoc2nc2c(OC)c(OC[C@@H](O)C(C)(C)O)ccc12 | inactive | 
COc1cc(NC(=O)c2ccc(C)cc2C)ccc1NC(=O)c1cccs1 | inactive | 
Cc1ccc(Nc2cc(=O)[nH]c(=O)[nH]2)cc1C | inactive | 
O=C(/C=C/c1ccccc1)Nc1ncn[nH]1 |  | AC50: 19.5 µM
COc1cccc(NC(=O)CSc2nnc(Cc3ccc(OC)c(OC)c3)o2)c1 | inactive | 
CC1CN(S(=O)(=O)c2ccc(C(=O)NCCCn3ccnc3)cc2)CC(C)O1 (centres undefined) | inactive | 
CC(C)(C)NC(=O)NC(=O)COc1ccccn1 | inactive | 
CCc1cc2c(Sc3nc4ccccc4s3)ncnc2s1 | inactive | 
Cc1cc(C)c(S(=O)(=O)N2CCN(S(=O)(=O)N3CCOCC3)CC2)c(C)c1 | inactive | 
CCN1c2ccccc2NC2C1C(C(C)=O)C(=O)N2c1ccc(Cl)cc1 (centres undefined) | inactive | 
O=C(O)c1ccc(S(=O)(=O)c2ccc3c(c2)C(=O)N(c2ccc(Br)cc2)C3=O)cc1 | inactive | 
Cc1ccc(/C=C2/CNC/C(=C/c3ccc(C)cc3)C2=O)cc1 |  | activity, higher = inhibition (at 2.1 µM (top of the series)): inactive
CC1CN(S(=O)(=O)c2cccc(C(=O)N3CCC(C(N)=O)CC3)c2)CC(C)O1 (centres undefined) | inactive | 
CSc1ccc(CN(C)CC(=O)NCCc2ccccc2)cc1 | inactive | 
CCOc1ccc(N2C(=O)/C(=C/c3cccs3)N(CC(=O)OC)C2=S)cc1 |  | AC50: > 19.5 µM (inactive)
CC(C)n1nc(C(=O)Nc2ccc(-n3cnnn3)cc2)c2ccccc2c1=O | inactive | 
O=C(NC1(C(F)(F)F)Oc2ccc(Cl)cc2O1)N1CCC2(CC1)OCCO2 (centres undefined) |  | AC50: 7.65 µM
Cc1ccc(S(=O)(=O)c2nc(-c3ccccc3Cl)oc2N(C)C2CCN(C)CC2)cc1 | inactive | 
COC(=O)c1sc(-c2ccc(Cl)cc2)cc1NC(=O)CSCC(=O)O | inactive | 

Compound | activity, higher = inhibition (at 19.5 µM (top of the series)) | further results
CCCn1nnc(NC(=O)C(c2ccccc2)c2ccccc2)n1 | inactive | 
NCCCC[C@H](N[C@@H](CCc1ccccc1)C(=O)O)C(=O)N1CCC[C@H]1C(=O)O | inactive | 
CCCCCCOC(=O)C(C#N)c1nc2ccccc2nc1N1CCOCC1 (centres undefined) | inactive | 
Cc1ccc2c(c1)C1CN(C)CCC1N2S(=O)(=O)c1cccc(C(F)(F)F)c1 (centres undefined) | inactive | 
COc1ccc(S(=O)(=O)Nc2cc3c(C(C)=O)c(C)oc3c3ccccc23)cc1 |  | AC50: 9.23 µM
COc1ccc2nc(N3C(=O)C(O)=C(C(=O)c4ccco4)C3c3ccccc3OC)sc2c1 (centres undefined) |  | AC50: > 19.5 µM (inactive)
O=C(CCNC(=O)c1ccco1)Nc1ccc(OC(F)(F)F)cc1 | inactive | 
COc1cccc(CNc2ccc3c(c2)CCC3)c1 | inactive | 
NC(CCc1ccccc1)c1csc(Nc2ccc(C(=O)c3ccccc3)cc2)n1 (centres undefined) |  | AC50: 10.2 µM
Nc1nc(-c2ccc3ccccc3c2)cs1 | inactive | 
COc1ccc(OCCN2CCC(C(=O)NC(c3ccccn3)c3ccccc3OC)CC2)cc1 (centres undefined) |  | activity, higher = inhibition (at 6.8 µM (top of the series)): inactive
COc1ccc(CC(NC(C)=O)C(=O)NC2CCN(C(=O)c3ccccc3F)CC2)cc1 (centres undefined) | inactive | 
COc1ccc(OC)c(/C=C/c2nc3ccccc3[nH]c2=O)c1 |  | activity, higher = inhibition (at 6.8 µM (top of the series)): inactive
O=C(COc1ccc(-n2cnnn2)cc1)Nc1cc(Cl)cc(Cl)c1 |  | AC50: 12.1 µM
COc1ccc(-c2csc(-c3cccnc3)n2)cc1C | inactive | 
Oc1[nH]c(=S)sc1/C=C1\C(c2ccccc2)=Nc2ccccc21 |  | activity, higher = inhibition (at 6.8 µM (top of the series)): inactive
CC(=O)Nc1ccc(NC(=O)COc2ccccc2C(=O)Nc2cccc(Cl)c2Cl)cc1 |  | AC50: 5.9 µM
CCN(CC)c1ccc2cc(C(N)=O)c(=O)oc2c1 |  | AC50: > 19.5 µM (inactive)
COc1ccc(CCNc2nnc(Sc3nnnn3-c3ccccc3)s2)cc1OC |  | AC50: 5.92 µM
